{"source": "patent US20070185067A1", "about": "“Ciclesonide and glycopyrronium combination” (Altana Pharma AG, priority 2004, published 2007)", "origin": "cited, not measured here", "key": {"[1]": {"test": "not given", "remark": "listed apart in the source"}, "[2]": {"conditions": "compared with budesonide"}}}
{"smiles": "CC(C)C(=O)OCC(=O)[C@@]12O[C@H](C3CCCCC3)O[C@@H]1C[C@H]1[C@@H]3CCC4=CC(=O)C=C[C@]4(C)[C@H]3[C@@H](O)C[C@@]12C", "note": "[Ciclesonide, [11β,16α(R)]-16,17-[(Cyclohexylmethylen)bis(oxy)]-11-hydroxy-21-(2-methyl-1-oxo-prop-oxy)pregna-1,4-dien-3,20-dion]", "values": [{"measurement": "metabolism by liver oxidases", "setting": "liver oxidases", "result": "very high"}, {"measurement": "concentration of the drug in the lungs", "setting": "lungs", "result": "high"}, {"measurement": "absorption after oral administration", "setting": "oral administration", "result": "only moderately absorbed"}, {"measurement": "plasma half-life", "setting": "plasma", "result": "low plasma half-life"}, {"measurement": "systemic activity relative to budesonide", "setting": "[1]; compared with budesonide", "result": "three times lower than that of budesonide"}, {"measurement": "systemic activity", "setting": "[1]; in vivo", "result": "low systemic activity"}, {"measurement": "anti-inflammatory activity relative to budesonide", "setting": "[2]", "result": "higher"}]}
